Patent publication US20170275706A1, “ALK AND ROS KINASE IN CANCER” (priority 2010, published 2017)

Legend:
[1] = tested on: Karpas 299 cells; experiment: Cleaved caspase-3 flow cytometry apoptosis assay, Karpas 299; format: cell-based; details: FIG. 7; presence of TAE-684
From the text: (§1) The mechanism of death of the BaF3 and Karpas 299 cells was next assessed by measuring the percentage of cleaved-caspase 3 positive cells by flow cytometry assay using cleaved caspase-3 as a marker for apoptosis.

[2] = tested on: STAT3, AKT, ERK, Shp2; experiment: Western blotting, downstream signaling phosphorylation in BaF3 cells transduced with FLT-3ITD; format: cell-based; details: BaF3 FLT-3ITD
From the text: (§2) All antibodies were from Cell Signaling Technology, Inc. (Danvers, Mass.)
(§3) Since ROS, ALK, LTK, InsR, and IGFIR belong to the same family of tyrosine kinases, they may share similar structure in the kinase domain.

[3] = molecular target: T1, FIG-ROS(S) (Homo sapiens, UniProt P08922); experiment: Western blotting, phosphorylation of FIG-ROS(S) in BaF3 cells; format: cell-based
T1 construct: expressed in transfected cells; host or cells: BaF3 cells, retroviral transduction
From the text: as §2, §3

[4] = tested on: STAT3, AKT, ERK, Shp2; experiment: Western blotting, downstream signaling phosphorylation in FIG-ROS(S) and FIG-ROS(L) expressing BaF3 cells; format: cell-based
From the text: as §2, §3

[5] = molecular target: FIG-ROS(L) (Homo sapiens, UniProt P08922); experiment: Western blotting, phosphorylation of FIG-ROS(L) in BaF3 cells; format: cell-based
From the text: as §2, §3

[6] = tested on: ERK, STAT3; experiment: Western blotting, ERK/STAT3 phosphorylation in Karpas 299 cells; format: cell-based
From the text: as §2, §3

[7] = tested on: BaF3 expressing FIG-ROS(L); experiment: MTS cell growth assay, BaF3 cells expressing FIG-ROS(L); format: cell-based; details: FIG. 6; 0-1000 nM TAE-684, 72 hours
Description: (§4) BaF3 and Karpas 299 cells were obtained from DSMZ (Deutsche Sammlung von Mikroorganismen und Zellkulturen GmbH, Germany). BaF3 cells, which need interleukin-3 to survive, were maintained at 37° C. in RPMI-1640 medium (Invitrogen) with 10% fetal bovine serum (FBS) (Sigma) and 1.0 ng/ml murine IL-3 (R&D Systems). Karpas 299 cells (a lymphoma cell line) were grown in RPMI-1640 with 10% FBS.
(§5) BaF3 cells were transduced with retrovirus encoding FIG-ROS(S), FIG-ROS(L), or FLT-3ITD (the Internal tandem duplication mutation in FLT3 causes AML leukemia), and selected for IL3 independent growth. Karpas 299 cells, which express NPM-ALK, was used as a positive control. Retroviruses were generated as previously described (see PCT Publication No. WO 2010/093928, incorporated by reference).
(§6) A MTS assay was performed using the CellTiter 96 Aqueous One Solution Reagent (Promega, Catalog No G3582). […] After 72 hours, 20 μl of the CellTiter 96 Aqueous One Solution Reagent was added into each well of a 96 well assay plate (flat bottom), and then 100 μl of cells grown with or without treatment. Media-only wells were used as controls. The 96 well plate was incubated for 1-4 hours at 37° C., and then viable cells were counted by reading the absorbance at 490 nm using a 96 well plate reader.

[8] = tested on: BaF3 expressing FIG-ROS(S); experiment: MTS cell growth assay, BaF3 cells expressing FIG-ROS(S); format: cell-based; details: FIG. 6; 0-1000 nM TAE-684, 72 hours
Description: as §4, §5, §6

[9] = tested on: BaF3 cells expressing FIG-ROS(S); experiment: Cleaved caspase-3 flow cytometry apoptosis assay, BaF3 FIG-ROS(S); format: cell-based; details: FIG. 7; presence of TAE-684
From the text: as §1

[10] = tested on: BaF3 expressing FLT3ITD; details: FIG. 6; 0-1000 nM TAE-684, 72 hours
Description: as §4, §5, §6

[11] = tested on: Karpas 299 cells; details: FIG. 6; 0-1000 nM TAE-684, 72 hours
Description: as §4, §5, §6

[12] = tested on: BaF3 cells expressing FIG-ROS(L); experiment: Cleaved caspase-3 flow cytometry apoptosis assay, BaF3 FIG-ROS(L); format: cell-based; details: FIG. 7; presence of TAE-684
From the text: as §1

[13] = FIG. 8, 0, 10, 50, or 100 nM TAE-684 for three hours
[14] = FIG. 10, 0, 0.1, 0.3, or 1.0 uM crizotinib for three hours

Compound	mechanism of death (cleaved-caspase 3 positive cells) [1]	phosphorylation of STAT3, AKT, and ERK, and Shp2 [2, 13]	phosphorylation of FIG-ROS(S) [3, 13]	phosphorylation of STAT3, AKT, and ERK, and Shp2 [4, 13]	phosphorylation of FIG-ROS(L) [5, 13]	ERK phosphorylation [6, 13]	cellular growth response [7]	cellular growth response [8]	mechanism of death (cleaved-caspase 3 positive cells) [9]	cellular growth response [10]	cellular growth response [11]	mechanism of death (cleaved-caspase 3 positive cells) [12]	phosphorylation of STAT3 and ERK [2, 14]	phosphorylation of FIG-ROS(S) [3, 14]	phosphorylation of STAT3 and ERK [4, 14]	phosphorylation of FIG-ROS(L) [5, 14]	STAT3 and ERK phosphorylation [6, 14]
COc1cc(N2CCC(N3CCN(C)CC3)CC2)ccc1Nc1ncc(Cl)c(Nc2ccccc2S(=O)(=O)C(C)C)n1 [TAE-684]	did not die by apoptosis	not affected	inhibited	inhibited	inhibited	inhibited	stopped growing	stopped growing	die by apoptosis	not susceptible	stopped growing	die by apoptosis	–	–	–	–	–
C[C@@H](Oc1cc(-c2cnn(C3CCNCC3)c2)cnc1N)c1c(Cl)ccc(F)c1Cl [crizotinib]	–	–	–	–	–	–	–	–	–	–	–	–	not affected	inhibited	inhibited	inhibited	inhibited
